Source: patent US20060194766A1, “Combinations comprising anti-epileptic drugs for the treatment of neurological disorders” (priority 2003, published 2006)

System: MES-induced seizures
Assay: Maximal electroshock test (MES)-induced seizures in mice
Assay type: in vivo
Settings: for % animals protected from seizures: pre-treatment 1 h
Protocol: Generalized tonic-clonic seizures are induced in mice by a maximal electroshock test (MES). In brief, seizures of the hind extremities of male Tif: MAGf (SPF) mice (19-25 g) are induced by passing alternating electrical current (50 Hz, 18 mA, 0.2 s) through temporal electrodes. The compounds and carbamazepine are suspended in 0.5% methyl cellulose for p.o. administration (doses for the compounds: 3.125, 6.25, 12.5 and 20.0 mg/kg p.o). The pre-treatment period for all compounds is 1 h. Ten animals per dose are used. For each experiment one group serves as a negative control (placebo). The number of animals protected from tonic hind limb extension seizure is determined in each dose and combination group.

NC(=O)N1c2ccccc2C=Cc2ccccc21 [Carbamazepine]
% animals protected from seizures (Carbamazepine 7.5 mg/kg combined with Compound 1, 3.125 mg/kg p.o.): 40% | % animals protected from seizures (Carbamazepine 7.5 mg/kg p.o. combined with placebo): 0% | % animals protected from seizures (Carbamazepine 12.5 mg/kg combined with Compound 1, 3.125 mg/kg p.o.): 80% | % animals protected from seizures (Carbamazepine 12.5 mg/kg combined with Compound 1, 6.25 mg/kg p.o.): 90% | % animals protected from seizures (Carbamazepine 20.0 mg/kg combined with Compound 1, 6.25 mg/kg p.o.): 100% | % animals protected from seizures (Carbamazepine 20.0 mg/kg p.o. combined with placebo): 80% | % of the mice protected (carbamazepine combined with placebo, doses of 7.5 to 20.0 mg/kg p.o.): up to 80%
